Laboratory results published in patent US20240116985A1, “STAPLED PEPTIDES AND METHODS THEREOF” (priority 2020, published 2024).
Starred links: 1 amine or outer side, 2 acyl side, 3 side chain; linkers in the order of their positions; H or OH if unused. Positions of bridges follow the written chain, without caps; N, C: chain ends. Non-standard residues stand in square brackets, D forms with d. Residues, ends and D or L forms follow the SMILES beside them. X3 = O=C([C@]1(CC=[*:3])CCCN1[*:1])[*:2]; Bta = N[C@@H](Cc1csc2ccccc12)C(=O)O; tBuAla = CC(C)(C)C[C@H](N)C(=O)O; 3Thi = N[C@@H](Cc1ccsc1)C(=O)O; R5 = C=CCCC[C@@](C)(N)C(=O)O; S5 = C=CCCC[C@](C)(N)C(=O)O; Aib = CC(C)(N)C(=O)O

Biological target: T1, full-length beta-Catenin (Uniprot ID P35222) (Homo sapiens, UniProt P35222)
T1 construct: 10 nM full-length beta-Catenin (Uniprot ID P35222)
T1 sequence (P35222 1-781): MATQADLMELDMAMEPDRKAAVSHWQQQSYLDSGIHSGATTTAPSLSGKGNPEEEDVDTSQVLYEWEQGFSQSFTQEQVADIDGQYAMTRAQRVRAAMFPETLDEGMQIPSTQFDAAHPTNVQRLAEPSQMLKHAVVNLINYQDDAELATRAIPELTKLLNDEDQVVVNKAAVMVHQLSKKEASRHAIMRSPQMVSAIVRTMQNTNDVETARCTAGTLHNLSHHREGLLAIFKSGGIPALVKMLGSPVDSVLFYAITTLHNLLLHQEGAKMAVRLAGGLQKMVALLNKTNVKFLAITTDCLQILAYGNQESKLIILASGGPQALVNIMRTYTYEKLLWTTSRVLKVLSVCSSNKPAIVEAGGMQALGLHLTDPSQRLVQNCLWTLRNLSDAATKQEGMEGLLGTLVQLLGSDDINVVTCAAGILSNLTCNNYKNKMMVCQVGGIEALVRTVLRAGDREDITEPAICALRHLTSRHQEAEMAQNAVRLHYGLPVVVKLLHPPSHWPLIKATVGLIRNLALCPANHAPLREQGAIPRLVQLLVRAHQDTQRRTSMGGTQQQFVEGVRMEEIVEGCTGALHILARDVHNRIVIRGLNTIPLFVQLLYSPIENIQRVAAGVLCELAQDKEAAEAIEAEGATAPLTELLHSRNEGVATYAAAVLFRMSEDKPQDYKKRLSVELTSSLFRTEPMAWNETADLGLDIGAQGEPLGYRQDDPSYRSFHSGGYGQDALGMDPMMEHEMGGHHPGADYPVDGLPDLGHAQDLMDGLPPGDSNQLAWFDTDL
Assay: Fluorescence polarization IC50 (beta-catenin / 5FAM-TCF4 10-53 competition)
Format: binding
Settings: fluorescence polarization; read-out: beta-Catenin FP IC50

IC50 [nM] | SMILES
2820 | CC(=O)N1CCC[C@]12CC=CCCCC1(CCCC=CCCCOC(=O)N3CC[C@@](C(=O)N[C@@H](Cc4ccsc4)C(=O)N[C@@H](Cc4csc5ccccc45)C(=O)N[C@@H](CCC(N)=O)C(N)=O)(C3)NC(=O)[C@H](CC(N)=O)NC(=O)[C@H](Cc3ccccc3)NC(=O)C(C)(C)NC(=O)[C@H](C)NC(=O)[C@H]([C@@H](C)O)NC(=O)[C@H](CC(N)=O)NC1=O)NC(=O)[C@H](CC(C)(C)C)NC(=O)[C@H](CC(=O)O)NC2=O (stereo partly drawn) [I-2339, Ac-PL3-Asp-Npg-B5-Asn-Thr-Ala-Aib-Phe-Asn-PyrS2-3Thi-BztA-Gln-NH2]
14 | CC(=O)N1CCC[C@]12CC=CCCCC1(CCCC=CCCCOC(=O)N3CC[C@@](C(=O)N[C@@H](Cc4ccsc4)C(=O)N[C@@H](Cc4csc5ccccc45)C(=O)N[C@@H](CCC(N)=O)C(N)=O)(C3)NC(=O)[C@H](CC(C)C)NC(=O)[C@H](Cc3ccccc3)NC(=O)[C@H](C)NC(=O)[C@H](C)NC(=O)[C@H](CCN(CC(=O)O)C(=O)CN3CCOCC3)NC(=O)[C@H](CC(=O)O)NC1=O)NC(=O)[C@H](CC(C)(C)C)NC(=O)[C@H](CC(=O)O)NC2=O (stereo partly drawn) [I-2249, Ac-PL3-Asp-Npg-B5-Asp-[MorphAc]GAbu-Ala-Ala-Phe-Leu-PyrS2-3Thi-BztA-Gln-NH2]
874 | CC(=O)N1CCC[C@]12CC=CCCCC1(CCCC=CCCCOC(=O)N3CC[C@@](C(=O)N[C@@H](Cc4ccsc4)C(=O)N[C@@H](Cc4csc5ccccc45)C(=O)N[C@@H](CCC(N)=O)C(N)=O)(C3)NC(=O)[C@H](CC(C)C)NC(=O)[C@H](Cc3ccccc3)NC(=O)[C@H](C)NC(=O)[C@H](C)NC(=O)[C@H](CC(=O)S)NC(=O)[C@H](CC(=O)O)NC1=O)NC(=O)[C@H](CC(C)(C)C)NC(=O)[C@H](CC(=O)O)NC2=O (stereo partly drawn) [I-1946, Ac-PL3-Asp-Npg-B5-Asp-AspSH-Ala-Ala-Phe-Leu-PyrS2-3Thi-BztA-Gln-NH2]
667 | CC(=O)N1CCC[C@]12CCCCCCC1(CCCCCCCCOC(=O)N3CC[C@@](C(=O)N[C@@H](Cc4ccsc4)C(=O)N[C@@H](Cc4csc5ccccc45)C(=O)N[C@@H](CC(C)C)C(N)=O)(C3)NC(=O)[C@H](CC(C)C)NC(=O)[C@H](Cc3ccccc3)NC(=O)[C@H](C)NC(=O)[C@H](CCCCNC(C)C)NC(=O)[C@H](CN(CC(=O)O)CC(F)(F)F)NC(=O)[C@H](CC(=O)O)NC1=O)NC(=O)[C@H](CC(C)(C)C)NC(=O)[C@H](CC(=O)O)NC2=O (stereo partly drawn) [I-1765, Ac-PL3-Asp-Npg-B5-Asp-TfeGA-iPrLys-Ala-Phe-Leu-PyrS2-3Thi-BztA-Leu-NH2]
99 | CC(=O)N1CCC[C@]12CC=CCCCC1(CCCC=CCCCOC(=O)N3CC[C@@](C(=O)N[C@@H](Cc4ccccc4C(F)(F)F)C(=O)N[C@@H](Cc4csc5ccccc45)C(=O)N[C@@H](CO)C(N)=O)(C3)NC(=O)[C@H](CC(C)C)NC(=O)[C@H](Cc3ccccc3)NC(=O)[C@H](C)NC(=O)[C@H](C)NC(=O)[C@H](Cc3ccccc3C(=O)O)NC(=O)[C@H](CC(=O)O)NC1=O)NC(=O)[C@H](CC(C)(C)C)NC(=O)[C@H](CC(=O)O)NC2=O (single isomer, unassigned) [I-1660, Ac-PL3-Asp-Npg-B5-Asp-2COOHF-Ala-Ala-Phe-Leu-PyrS2-2F3MeF-BztA-Ser-NH2]
82 | CC(=O)N1CCC[C@]12CC=CCCCC1(CCCC=CCCCOC(=O)N3CC[C@@](C(=O)N[C@@H](Cc4ccccc4Cl)C(=O)N[C@@H](Cc4csc5ccccc45)C(=O)N[C@H](CO)CC(C)C)(C3)NC(=O)[C@H]([C@@H](C)O)NC(=O)[C@H](Cc3ccccc3)NC(=O)[C@H](C)NC(=O)[C@H](C)NC(=O)[C@H](CN(CC(=O)O)CC(F)(F)F)NC(=O)[C@H](CC(=O)O)NC1=O)NC(=O)[C@H](CC(C)(C)C)NC(=O)[C@H](CC(=O)O)NC2=O (stereo partly drawn) [I-1243, Ac-PL3-Asp-Npg-B5-Asp-TfeGA-Ala-Ala-Phe-Thr-PyrS2-2C1F-BztA-Leuo1]
2850 | CC(=O)N1CCC[C@]12CC=CCCCC1(CCCC=CCCCOC(=O)N3CC[C@@](C(=O)N[C@@H](Cc4ccsc4)C(=O)N[C@@H](Cc4csc5ccccc45)C(=O)N[C@@H](CCC(N)=O)C(N)=O)(C3)NC(=O)[C@H](CC(N)=O)NC(=O)[C@H](Cc3ccccc3)NC(=O)[C@H](C)NC(=O)[C@H](C)NC(=O)[C@H](CC(N)=O)NC(=O)[C@H](CC(C)C)NC1=O)NC(=O)[C@H](CC(C)(C)C)NC(=O)[C@H](CC(=O)O)NC2=O (stereo partly drawn) [I-1563, Ac-PL3-Asp-Npg-B5-Leu-Asn-Ala-Ala-Phe-Asn-PyrS2-3Thi-BztA-Gln-NH2]
312 | CC(=O)N1CCC[C@H]1C(=O)N[C@@H](CC(=O)O)C(=O)N[C@@H](CC(C)(C)C)C(=O)N[C@]1(C)CCCCC=CCCCOC(=O)N2CC[C@@](C(=O)N[C@@H](Cc3ccsc3)C(=O)N[C@@H](Cc3csc4ccccc34)C(=O)N[C@@H](CCC(N)=O)C(N)=O)(C2)NC(=O)[C@H](CC(C)C)NC(=O)[C@H](Cc2ccccc2)NC(=O)[C@H](C)NC(=O)[C@H](C)NC(=O)[C@H](CC(=O)O)NC(=O)[C@H](CC(=O)O)NC1=O [I-1988, Ac-Pro-Asp-Npg-R6-Asp-Asp-Ala-Ala-Phe-Leu-PyrS2-3Thi-BztA-Gln-NH2]
8450 | CC(=O)N1CCC[C@]12CC=CCCC[C@@](C)(C(=O)N[C@@H](CC(=O)O)C(=O)N[C@@H](CC(=O)O)C(=O)NC(C)(C)C(=O)N[C@@H](C)C(=O)N[C@@H](Cc1ccccc1)C(=O)N[C@]1(C)CCCC=CCCC[C@@](C)(C(=O)N[C@@H](C)C(N)=O)NC(=O)[C@H](Cc3csc4ccccc34)NC(=O)[C@H](Cc3ccsc3)NC(=O)[C@H](C)NC1=O)NC(=O)[C@H](CC(C)(C)C)NC(=O)[C@H](CC(=O)O)NC2=O [I-1781, Ac-PL3-Asp-Npg-S5-Asp-Asp-Aib-Ala-Phe-R5-Ala-3Thi-BztA-S5-Ala-NH2] (Ac-[X3]D[tBuAla][S5]DD[Aib]AF[R5]A[3Thi][Bta][S5]A-NH2; staple 1-4, 10-14 (inferred))
45 | C[C@@H]1NC(=O)[C@H](C)NC(=O)[C@H](CC(=O)O)NC(=O)[C@H](CC(=O)O)NC(=O)C2(CCCC=CCCCOC(=O)N3CC[C@@](C(=O)N[C@@H](Cc4ccsc4)C(=O)N[C@@H](Cc4csc5ccccc45)C(=O)N[C@@H](CCC(N)=O)C(N)=O)(C3)NC(=O)[C@H](CC(N)=O)NC(=O)[C@H](Cc3ccccc3)NC1=O)CCCC=CCS(=O)(=O)N1CCCC1C(=O)N[C@@H](CC(=O)O)C(=O)N[C@@H](CC(C)(C)C)C(=O)N2 (single isomer, unassigned) [I-1577, ProSAm3-Asp-Npg-B5-Asp-Asp-Ala-Ala-Phe-Asn-PyrS2-3Thi-BztA-Gln-NH2]
528 | CC(=O)N1CCC[C@]12CC=CCCCC1(CCCC=CCCCOC(=O)N3CC[C@@](C(=O)N[C@@H](Cc4ccsc4)C(=O)N[C@@H](Cc4csc5ccccc45)C(=O)N[C@@H](CCC(N)=O)C(N)=O)(C3)NC(=O)[C@H](CC(C)C)NC(=O)[C@H](Cc3ccccc3)NC(=O)[C@H](C)NC(=O)[C@H](C)NC(=O)[C@H](Cc3ccc(O)cc3)NC(=O)[C@H](CC(=O)O)NC1=O)NC(=O)[C@H](CC(C)(C)C)NC(=O)[C@H](CC(=O)O)NC2=O (stereo partly drawn) [I-1784, Ac-PL3-Asp-Npg-B5-Asp-Tyr-Ala-Ala-Phe-Leu-PyrS2-3Thi-BztA-Gln-NH2]
38 | CC(=O)N1CCC[C@]12CC=CCCCC1(CCCC=CCCCOC(=O)N3CC[C@@](C(=O)N[C@@H](Cc4ccsc4)C(=O)N[C@@H](Cc4csc5ccccc45)C(=O)N[C@@H](CCC(N)=O)C(N)=O)(C3)NC(=O)[C@H](CC(C)C)NC(=O)[C@H](Cc3ccccc3)NC(=O)[C@H](C)NC(=O)[C@H](C)NC(=O)[C@H](CN(CC(=O)O)C(=O)C(F)(F)F)NC(=O)[C@H](CC(=O)O)NC1=O)NC(=O)[C@H](CC(C)(C)C)NC(=O)[C@H](CC(=O)O)NC2=O (stereo partly drawn) [I-1730, Ac-PL3-Asp-Npg-B5-Asp-[CF3CO]GA-Ala-Ala-Phe-Leu-PyrS2-3Thi-BztA-Gln-NH2]
738 | CCSSCCOC(=O)C[C@@H]1NC(=O)C2(CCCC=CCCCOC(=O)N3CC[C@@](C(=O)N[C@@H](Cc4ccsc4)C(=O)N[C@@H](Cc4csc5ccccc45)C(=O)N[C@@H](CCC(N)=O)C(N)=O)(C3)NC(=O)[C@H](CC(C)C)NC(=O)[C@H](Cc3ccccc3)NC(=O)[C@H](C)NC(=O)[C@H](C)NC(=O)[C@H](CC(=O)O)NC1=O)CCCC=CC[C@]1(CCCN1C(C)=O)C(=O)N[C@@H](CC(=O)O)C(=O)N[C@@H](CC(C)(C)C)C(=O)N2 (stereo partly drawn) [I-1964, Ac-PL3-Asp-Npg-B5-[EtSSEt]AspE-Asp-Ala-Ala-Phe-Leu-PyrS2-3Thi-BztA-Gln-NH2]

SMILES | IC50 [nM]
CC(=O)N1CCC[C@]12CC=CCCCC1(CCCC=CCCCOC(=O)N3CC[C@@](C(=O)N[C@@H](Cc4ccsc4)C(=O)N[C@@H](Cc4csc5ccccc45)C(=O)N[C@@H](CCC(N)=O)C(N)=O)(C3)NC(=O)[C@H](CC(C)C)NC(=O)[C@H](Cc3ccccc3)NC(=O)[C@H](C)NC(=O)[C@H](C)NC(=O)[C@H](CC(=O)O)NC(=O)[C@H](CC(=O)OCCSSc3ccccn3)NC1=O)NC(=O)[C@H](CC(C)(C)C)NC(=O)[C@H](CC(=O)O)NC2=O (stereo partly drawn) [I-1950, Ac-PL3-Asp-Npg-B5-[EtSSpy]AspE-Asp-Ala-Ala-Phe-Leu-PyrS2-3Thi-BztA-Gln-NH2] | 234
